Assay results published in US20230365592A1 (Agios Pharmaceuticals, Inc., priority 2022, published 2023).

What follows are compounds tested against T1, human PAH with the R408W mutation (Homo sapiens, UniProt P00439, R408W) (assay: Cell Based Phenylalanine Flux Assay). Conditions: A375 cells expressing human PAH R408W; 24 hrs compound incubation; 13C-Tyrosine by LC-MS; average where tested multiple times; read-out: AC50.
T1 construct: expressed in transfected cells
T1 sequence (P00439 1-452 R408W): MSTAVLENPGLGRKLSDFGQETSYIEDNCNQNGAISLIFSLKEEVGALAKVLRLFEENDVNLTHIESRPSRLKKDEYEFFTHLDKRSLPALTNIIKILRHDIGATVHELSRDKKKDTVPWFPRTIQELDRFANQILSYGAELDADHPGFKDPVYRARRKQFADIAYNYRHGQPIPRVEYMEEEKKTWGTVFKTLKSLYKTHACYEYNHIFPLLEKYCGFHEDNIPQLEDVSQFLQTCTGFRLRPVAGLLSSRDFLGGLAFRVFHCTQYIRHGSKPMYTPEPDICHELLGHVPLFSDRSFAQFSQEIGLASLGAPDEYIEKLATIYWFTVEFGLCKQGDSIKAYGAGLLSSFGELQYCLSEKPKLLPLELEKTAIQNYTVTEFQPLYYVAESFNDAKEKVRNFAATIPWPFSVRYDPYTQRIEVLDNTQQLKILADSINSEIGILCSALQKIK
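Further: after compound treatment, cells received sepiapterin plus isotope-labelled Phenylalanine for 4 hours, then labelled Tyrosine in the medium was quantified, 10-point 2-fold dilution series run in duplicate.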

Question: With Cc1cccn2nc([C@@H]3c4nc[nH]c4CCN3c3nnc(C(C)(C)C)o3)cc12 [Example 1799, (S)-2-(tert-butyl)-5-(4-(4-methylpyrazolo[1,5-a]pyridin-2-yl)-6,7-dihydro-1H-imidazo[4,5-c]pyridin-5(4H)-yl)-1,3,4-oxadiazole] as the compound, how does the AC50 read?
Answer: 500 to 1000 nM

Question: Which AC50 does the source give for FC(F)(F)c1cnc(N2CCc3[nH]cnc3[C@H]2c2cc3cccc(Cl)n3n2)nc1 [Example 1800, (S)-4-(7-chloropyrazolo[1,5-a]pyridin-2-yl)-5-(5-(trifluoromethyl)pyrimidin-2-yl)-4,5,6,7-tetrahydro-1H-imidazo[4,5-c]pyridine] here?
Answer: < 500 nM

Question: Which AC50 does the source give for Cc1cccc2cc([C@H]3c4nc[nH]c4CCN3c3ncc(C(F)(F)F)cn3)nn12 [Example 1803, (R)-4-(7-methylpyrazolo[1,5-a]pyridin-2-yl)-5-(5-(trifluoromethyl)pyrimidin-2-yl)-4,5,6,7-tetrahydro-1H-imidazo[4,5-c]pyridine] here?
Answer: > 5000 nM

Question: Which AC50 does the source give for Cc1cccn2nc([C@H]3c4nc[nH]c4CCN3c3cnccn3)cc12 [Example 1804, (R)-4-(4-methylpyrazolo[1,5-a]pyridin-2-yl)-5-(pyrazin-2-yl)-4,5,6,7-tetrahydro-1H-imidazo[4,5-c]pyridine] here?
Answer: 1000 to 5000 nM

Question: Cc1cccn2nc([C@@H]3c4nc[nH]c4CCN3c3cnccn3)cc12 [Example 1805, (S)-4-(4-methylpyrazolo[1,5-a]pyridin-2-yl)-5-(pyrazin-2-yl)-4,5,6,7-tetrahydro-1H-imidazo[4,5-c]pyridine] was tested. Which AC50 did it give?
Answer: < 500 nM

Question: With FC(F)(F)c1nnc(N2CCc3[nH]cnc3[C@H]2c2cc3ccccn3n2)o1 [Example 1807, (S)-2-(4-(pyrazolo[1,5-a]pyridin-2-yl)-6,7-dihydro-1H-imidazo[4,5-c]pyridin-5(4H)-yl)-5-(trifluoromethyl)-1,3,4-oxadiazole] as the compound, how does the AC50 read?
Answer: 500 to 1000 nM

Question: With Cc1cccn2nc([C@@H]3c4nc[nH]c4CCN3c3nnc(C(F)(F)F)o3)cc12 [Example 1809, (S)-2-(4-(4-methylpyrazolo[1,5-a]pyridin-2-yl)-6,7-dihydro-1H-imidazo[4,5-c]pyridin-5(4H)-yl)-5-(trifluoromethyl)-1,3,4-oxadiazole] as the compound, how does the AC50 read?
Answer: < 500 nM

Question: For FC(F)(F)c1cnc(N2CCc3[nH]cnc3[C@H]2c2cc3cccc(C(F)(F)F)n3n2)nc1 [Example 1810, (S)-4-(7-(trifluoromethyl)pyrazolo[1,5-a]pyridin-2-yl)-5-(5-(trifluoromethyl)pyrimidin-2-yl)-4,5,6,7-tetrahydro-1H-imidazo[4,5-c]pyridine], which AC50 is on record?
Answer: 500 to 1000 nM

Question: For FC(F)c1cccc2cc([C@@H]3c4nc[nH]c4CCN3c3ncc(C(F)(F)F)cn3)nn12 [Example 1812, (S)-4-(7-(difluoromethyl)pyrazolo[1,5-a]pyridin-2-yl)-5-(5-(trifluoromethyl)pyrimidin-2-yl)-4,5,6,7-tetrahydro-1H-imidazo[4,5-c]pyridine], which AC50 is on record?
Answer: 500 to 1000 nM

Question: c1ccc(N2CCc3[nH]cnc3[C@H]2c2cc3ccccn3n2)nc1 [Example 1814, (S)-4-(pyrazolo[1,5-a]pyridin-2-yl)-5-(pyridin-2-yl)-4,5,6,7-tetrahydro-1H-imidazo[4,5-c]pyridine] was tested. Which AC50 did it give?
Answer: < 500 nM

Question: With c1ccc(N2CCc3[nH]cnc3[C@@H]2c2cc3ccccn3n2)nc1 [Example 1815, (R)-4-(pyrazolo[1,5-a]pyridin-2-yl)-5-(pyridin-2-yl)-4,5,6,7-tetrahydro-1H-imidazo[4,5-c]pyridine] as the compound, how does the AC50 read?
Answer: > 5000 nM

Question: How did the AC50 turn out when FC(F)c1cccn2nc([C@H]3c4nc[nH]c4CCN3c3cnccn3)cc12 [Example 1816, (R)-4-(4-(difluoromethyl)pyrazolo[1,5-a]pyridin-2-yl)-5-(pyrazin-2-yl)-4,5,6,7-tetrahydro-1H-imidazo[4,5-c]pyridine] was run?
Answer: > 5000 nM

Question: How did the AC50 turn out when FC(F)c1cccn2nc([C@@H]3c4nc[nH]c4CCN3c3cnccn3)cc12 [Example 1817, (S)-4-(4-(difluoromethyl)pyrazolo[1,5-a]pyridin-2-yl)-5-(pyrazin-2-yl)-4,5,6,7-tetrahydro-1H-imidazo[4,5-c]pyridine] was run?
Answer: < 500 nM

Question: FC(F)(F)c1cccn2nc([C@H]3c4nc[nH]c4CCN3c3cnccn3)cc12 [Example 1818, (R)-5-(pyrazin-2-yl)-4-(4-(trifluoromethyl)pyrazolo[1,5-a]pyridin-2-yl)-4,5,6,7-tetrahydro-1H-imidazo[4,5-c]pyridine] was tested. Which AC50 did it give?
Answer: > 5000 nM

Question: For FC(F)(F)c1cccn2nc([C@@H]3c4nc[nH]c4CCN3c3cnccn3)cc12 [Example 1819, (S)-5-(pyrazin-2-yl)-4-(4-(trifluoromethyl)pyrazolo[1,5-a]pyridin-2-yl)-4,5,6,7-tetrahydro-1H-imidazo[4,5-c]pyridine], which AC50 is on record?
Answer: < 500 nM

Question: How did the AC50 turn out when FC(F)(F)c1nnc(N2CCc3[nH]cnc3[C@@H]2c2cc3c(C(F)(F)F)cccn3n2)o1 [Example 1820, (R)-2-(trifluoromethyl)-5-(4-(4-(trifluoromethyl)pyrazolo[1,5-a]pyridin-2-yl)-6,7-dihydro-1H-imidazo[4,5-c]pyridin-5(4H)-yl)-1,3,4-oxadiazole] was run?
Answer: > 5000 nM

Same assay, conditions: A375 cells expressing human R408W PAH; 24 hrs compound incubation; 13C-Tyrosine by LC-MS; average where tested multiple times; read-out: AC50

Question: Which AC50 does the source give for COCCc1ccc2c(C(=O)N3CCc4[nH]cnc4[C@H]3c3cc4c(C(F)(F)F)cccn4n3)cnn2c1 [Example 1784, (S)-(6-(2-methoxyethyl)pyrazolo[1,5-a]pyridin-3-yl)(4-(4-(trifluoromethyl)pyrazolo[1,5-a]pyridin-2-yl)-1,4,6,7-tetrahydro-5H-imidazo[4,5-c]pyridin-5-yl)methanone] here?
Answer: 500 to 1000 nM

Question: Which AC50 does the source give for Cc1ccc2c(C(=O)N3CCc4[nH]cnc4[C@H]3c3cc4cccc(F)n4n3)cnn2c1 [Example 1786, (S)-(4-(7-fluoropyrazolo[1,5-a]pyridin-2-yl)-6,7-dihydro-1H-imidazo[4,5-c]pyridin-5(4H)-yl)(6-methylpyrazolo[1,5-a]pyridin-3-yl)methanone] here?
Answer: 500 to 1000 nM

Question: Which AC50 does the source give for Cc1ccc2c(C(=O)N3CCc4[nH]cnc4[C@@H]3c3cc4cccc(F)n4n3)cnn2c1 [Example 1787, (R)-(4-(7-fluoropyrazolo[1,5-a]pyridin-2-yl)-6,7-dihydro-1H-imidazo[4,5-c]pyridin-5(4H)-yl)(6-methylpyrazolo[1,5-a]pyridin-3-yl)methanone] here?
Answer: 1000 to 5000 nM

Question: For COc1cccn2nc([C@@H]3c4nc[nH]c4CCN3C(=O)c3cnn4cc(C5CC5)ccc34)cc12 [Example 1788, (S)-(6-cyclopropylpyrazolo[1,5-a]pyridin-3-yl)(4-(4-methoxypyrazolo[1,5-a]pyridin-2-yl)-6,7-dihydro-1H-imidazo[4,5-c]pyridin-5(4H)-yl)methanone], which AC50 is on record?
Answer: 500 to 1000 nM

Question: COc1cccn2nc([C@H]3c4nc[nH]c4CCN3C(=O)c3cnn4cc(C5CC5)ccc34)cc12 [Example 1789, (R)-(6-cyclopropylpyrazolo[1,5-a]pyridin-3-yl)(4-(4-methoxypyrazolo[1,5-a]pyridin-2-yl)-6,7-dihydro-1H-imidazo[4,5-c]pyridin-5(4H)-yl)methanone] was tested. Which AC50 did it give?
Answer: > 5000 nM

Question: How did the AC50 turn out when O=C(c1cnn2cc(C3CC3)ccc12)N1CCc2[nH]cnc2[C@H]1c1cc2cccc(F)n2n1 [Example 1790, (S)-(6-cyclopropylpyrazolo[1,5-a]pyridin-3-yl)(4-(7-fluoropyrazolo[1,5-a]pyridin-2-yl)-6,7-dihydro-1H-imidazo[4,5-c]pyridin-5(4H)-yl)methanone] was run?
Answer: 500 to 1000 nM

Question: For O=C(c1cnn2cc(C3CC3)ccc12)N1CCc2[nH]cnc2[C@@H]1c1cc2cccc(F)n2n1 [Example 1791, (R)-(6-cyclopropylpyrazolo[1,5-a]pyridin-3-yl)(4-(7-fluoropyrazolo[1,5-a]pyridin-2-yl)-6,7-dihydro-1H-imidazo[4,5-c]pyridin-5(4H)-yl)methanone], which AC50 is on record?
Answer: > 5000 nM

Question: Which AC50 does the source give for CN(C)c1ccc2c(C(=O)N3CCc4[nH]cnc4[C@H]3c3cc4c(Cl)cccn4n3)cnn2c1 [Example 1792, (S)-(4-(4-chloropyrazolo[1,5-a]pyridin-2-yl)-6,7-dihydro-1H-imidazo[4,5-c]pyridin-5(4H)-yl)(6-(dimethylamino)pyrazolo[1,5-a]pyridin-3-yl)methanone] here?
Answer: < 500 nM

Question: How did the AC50 turn out when Cc1cccc2cc([C@@H]3c4nc[nH]c4CCN3C(=O)c3cnn4cc(N(C)C)ccc34)nn12 [Example 1794, (S)-(6-(dimethylamino)pyrazolo[1,5-a]pyridin-3-yl)(4-(7-methylpyrazolo[1,5-a]pyridin-2-yl)-6,7-dihydro-1H-imidazo[4,5-c]pyridin-5(4H)-yl)methanone] was run?
Answer: 500 to 1000 nM

Question: With Cc1cccc2cc([C@H]3c4nc[nH]c4CCN3C(=O)c3cnn4cc(N(C)C)ccc34)nn12 [Example 1795, (R)-(6-(dimethylamino)pyrazolo[1,5-a]pyridin-3-yl)(4-(7-methylpyrazolo[1,5-a]pyridin-2-yl)-6,7-dihydro-1H-imidazo[4,5-c]pyridin-5(4H)-yl)methanone] as the compound, how does the AC50 read?
Answer: > 5000 nM

Question: For COCCc1ccc2c(C(=O)N3CCc4[nH]cnc4[C@H]3c3cc4c(F)cccn4n3)cnn2c1 [Example 1796, (S)-(4-(4-fluoropyrazolo[1,5-a]pyridin-2-yl)-6,7-dihydro-1H-imidazo[4,5-c]pyridin-5(4H)-yl)(6-(2-methoxyethyl)pyrazolo[1,5-a]pyridin-3-yl)methanone], which AC50 is on record?
Answer: 500 to 1000 nM

Question: How did the AC50 turn out when Cc1cccn2nc([C@H]3c4nc[nH]c4CCN3c3nnc(C(C)(C)C)o3)cc12 [Example 1798, (R)-2-(tert-butyl)-5-(4-(4-methylpyrazolo[1,5-a]pyridin-2-yl)-6,7-dihydro-1H-imidazo[4,5-c]pyridin-5(4H)-yl)-1,3,4-oxadiazole] was run?
Answer: > 5000 nM
